US8809586B2, “Modafinil compositions” (priority 2004, dated 2014)

experiment: Solubility measured from an isopropyl acetate slurry, by HPLC; details: solid from solubility samples dried under nitrogen, characterized by PXRD and thermal microscopy

| SMILES | Form conversion during solubility procedure |
| --- | --- |
| NC(=O)C[S@@+]([O-])C(c1ccccc1)c1ccccc1 [R-(−)-modafinil Form III, R-(−)-2-[(Diphenylmethyl)sulfinyl]acetamide] | Form conversion was not observed |
| NC(=O)C[S@@+]([O-])C(c1ccccc1)c1ccccc1 [R-(−)-modafinil Form IV, R-(−)-2-[(Diphenylmethyl)sulfinyl]acetamide] | Form conversion was not observed |
| NC(=O)C[S@@+]([O-])C(c1ccccc1)c1ccccc1 [R-(−)-modafinil Form V, R-(−)-2-[(Diphenylmethyl)sulfinyl]acetamide] | Form conversion was not observed |
